Each block holds one molecule with its values, some of them ahead of it.
Key:
Type in all cases: cell-based, Escherichia coli
[1] = target: T1, (UniProt P04816+P0AD96); assay: inhibition of […]leucine uptake into whole cells, filtration; conditions: read-out: 50% inhibition
T1 construct: gene livJ; native chromosomal ABC importer in whole cells; other candidate importers deleted

[2] = target: T1, (UniProt P04816+P0AD96); assay: inhibition of […]cysteine uptake into whole cells, filtration; conditions: read-out: 50% inhibition
[3] = substrate: N[C@@H](CS)C(=O)O; assay: cells, lysate or membranes; conditions: strain ZYD214, no other amino acids, 93-s time point, 37 °C, minimal glucose medium pH 7.0, DTPA and chloramphenicol, labelled compound

T1 sequence (P22731 whole entry, one chain of several): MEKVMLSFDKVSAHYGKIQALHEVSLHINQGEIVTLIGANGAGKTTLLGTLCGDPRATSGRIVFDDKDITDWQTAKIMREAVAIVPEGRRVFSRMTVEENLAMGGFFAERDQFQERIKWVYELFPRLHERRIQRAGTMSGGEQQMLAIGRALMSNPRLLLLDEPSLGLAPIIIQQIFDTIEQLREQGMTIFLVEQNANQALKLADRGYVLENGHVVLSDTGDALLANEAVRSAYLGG
T1 sequence (P0AEX7 whole entry, one chain of several, further chain): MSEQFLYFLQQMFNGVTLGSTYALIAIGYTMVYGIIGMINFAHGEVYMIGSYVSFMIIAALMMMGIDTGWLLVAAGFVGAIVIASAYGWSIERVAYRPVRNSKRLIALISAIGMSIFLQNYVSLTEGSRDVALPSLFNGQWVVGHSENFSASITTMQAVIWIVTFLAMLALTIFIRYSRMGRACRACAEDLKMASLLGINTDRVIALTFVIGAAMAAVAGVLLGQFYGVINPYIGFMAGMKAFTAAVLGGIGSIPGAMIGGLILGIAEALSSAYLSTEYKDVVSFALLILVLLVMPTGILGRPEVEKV
T1 sequence (P22729 whole entry, one chain of several, further chain): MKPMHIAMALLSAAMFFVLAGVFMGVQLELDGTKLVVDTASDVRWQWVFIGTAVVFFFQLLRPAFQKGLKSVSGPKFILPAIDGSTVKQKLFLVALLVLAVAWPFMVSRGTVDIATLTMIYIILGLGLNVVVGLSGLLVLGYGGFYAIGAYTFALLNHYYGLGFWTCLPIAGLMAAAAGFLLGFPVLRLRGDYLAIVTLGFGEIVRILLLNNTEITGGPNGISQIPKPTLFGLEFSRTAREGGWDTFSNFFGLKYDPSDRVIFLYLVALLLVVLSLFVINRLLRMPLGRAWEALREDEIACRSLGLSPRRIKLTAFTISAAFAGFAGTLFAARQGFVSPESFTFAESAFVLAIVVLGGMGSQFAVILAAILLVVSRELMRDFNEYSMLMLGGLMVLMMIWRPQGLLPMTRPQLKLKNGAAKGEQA
T1 sequence (P0A9S7 whole entry, one chain of several, further chain): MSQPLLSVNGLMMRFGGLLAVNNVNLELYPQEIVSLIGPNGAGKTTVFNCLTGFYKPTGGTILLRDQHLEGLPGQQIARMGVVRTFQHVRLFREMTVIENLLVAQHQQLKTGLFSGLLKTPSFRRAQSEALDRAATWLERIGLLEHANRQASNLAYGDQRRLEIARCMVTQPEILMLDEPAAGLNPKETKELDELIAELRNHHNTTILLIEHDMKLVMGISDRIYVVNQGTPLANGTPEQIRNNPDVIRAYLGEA

IC50 [1]: ~400 µM
Molecule: N[C@@H](CS)C(=O)O [cysteine]

IC50 [2]: ~2 µM
Molecule: CC(C)C[C@H](N)C(=O)O [leucine]

B1: LIV system (LivJ/LivKHMGF) (Escherichia coli K-12) (protein)
chain 1: EDIKVAVVGAMSGPVAQYGDQEFTGAEQAVADINAKGGIKGNKLQIVKYDDACDPKQAVAVANKVVNDGIKYVIGHLCSSSTQPASDIYEDEGILMITPAATAPELTARGYQLILRTTGLDSDQGPTAAKYILEKVKPQRIAIVHDKQQYGEGLARAVQDGLKKGNANVVFFDGITAGEKDFSTLVARLKKENIDFVYYGGYHPEMGQILRQARAAGLKTQFMGPEGVANVSLSNIAGESAEGLLVTKPKNYDQVPANKPIVDAIKAKKQDPSGAFVWTTYAALQSLQAGLNQSDDPAEIAKYLKANSVDTVMGPLTWDEKGDLKGFEFGVFDWHANGTATDAK
chain 2: DDIKVAVVGAMSGPIAQWGDMEFNGARQAIKDINAKGGIKGDKLVGVEYDDACDPKQAVAVANKIVNDGIKYVIGHLCSSSTQPASDIYEDEGILMISPGATNPELTQRGYQHIMRTAGLDSSQGPTAAKYILETVKPQRIAIIHDKQQYGEGLARSVQDGLKAANANVVFFDGITAGEKDFSALIARLKKENIDFVYYGGYYPEMGQMLRQARSVGLKTQFMGPEGVGNASLSNIAGDAAEGMLVTMPKRYDQDPANQGIVDALKADKKDPSGPYVWITYAAVQSLATALERTGSDEPLALVKDLKANGANTVIGPLNWDEKGDLKGFDFGVFQWHADGSSTAAK
notes: native chromosomal ABC importer in whole cells; other candidate importers deleted
Km [3]: 20 µM
